Test results reported in ChEMBL document CHEMBL1201862, “PubChem BioAssay data set” (2004).
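A five-concentration, 48-hour dose response in 96-well plates underlies each endpoint, interpolated linearly between surrounding concentrations. GI50 = concentration required for 50% inhibition of growth.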 Calls of active or inactive are those of the source. Rule as the data show it: active = GI50 up to about 1.1 µM and inactive = higher.

Assays:
Assay in all cases: NCI tumour cell line growth inhibition, 48 h
NCI/ADR-RES = tested on: NCI/ADR-RES
MDA-N = tested on: MDA-N
SF-295 = tested on: SF-295
HCT-15 = tested on: HCT-15
Hs-578T = tested on: Hs-578T
TK-10 = tested on: TK-10
SNB-19 = tested on: SNB-19
786-0 = tested on: 786-0
OVCAR-8 = tested on: OVCAR-8
MCF7 = tested on: MCF7
NCI-H522 = tested on: NCI-H522
RXF 393 = tested on: RXF 393
RPMI-8226 = tested on: RPMI-8226
HCC 2998 = tested on: HCC 2998
UACC-257 = tested on: UACC-257
DU-145 = tested on: DU-145
K562 = tested on: K562
SF-268 = tested on: SF-268
HOP-62 = tested on: HOP-62

Nc1ncnc2c1ccn2C1OC2COP(=O)(O)OC2C1O (stereo not given)
GI50 (NCI/ADR-RES): 0.565 µM (active) | GI50 (MDA-N): 0.379 µM (active) | GI50 (SF-295): 0.641 µM (active) | GI50 (HCT-15): 0.152 µM | GI50 (Hs-578T): 0.502 µM (active) | GI50 (TK-10): 0.25 µM (active) | GI50 (SNB-19): 1.61 µM (inactive) | GI50 (786-0): 0.281 µM (active) | GI50 (OVCAR-8): 0.0773 µM (active) | GI50 (MCF7): 0.444 µM (active) | GI50 (NCI-H522): 0.14 µM (active) | GI50 (RXF 393): 0.212 µM (active) | GI50 (RPMI-8226): 0.124 µM (active) | GI50 (HCC 2998): 0.942 µM (active) | GI50 (UACC-257): 1.26 µM (inactive) | GI50 (DU-145): 0.723 µM (active) | GI50 (K562): 0.261 µM (active) | GI50 (SF-268): 0.46 µM (active) | GI50 (HOP-62): 0.501 µM (active)

COC1CC(COCc2ccccc2)CC(OC)O1 (stereo not given)
GI50 (NCI/ADR-RES): > 100 µM (inactive) | GI50 (MDA-N): > 100 µM (inactive) | GI50 (SF-295): > 100 µM (inactive) | GI50 (HCT-15): > 100 µM | GI50 (Hs-578T): > 100 µM (inactive) | GI50 (TK-10): > 100 µM (inactive) | GI50 (786-0): > 100 µM (inactive) | GI50 (OVCAR-8): > 100 µM (inactive) | GI50 (MCF7): > 100 µM (inactive) | GI50 (NCI-H522): > 100 µM (inactive) | GI50 (RXF 393): > 100 µM (inactive) | GI50 (RPMI-8226): > 100 µM (inactive) | GI50 (HCC 2998): > 100 µM (inactive) | GI50 (UACC-257): > 100 µM (inactive) | GI50 (DU-145): > 100 µM (inactive) | GI50 (K562): > 100 µM (inactive) | GI50 (SF-268): > 100 µM (inactive) | GI50 (HOP-62): > 100 µM (inactive)

COc1ccc(/N=N/C(=N\c2ccc(Cl)cc2)c2ccc(N(CCC#N)CCC#N)cc2)cc1
GI50 (NCI/ADR-RES): 10.5 µM (inactive) | GI50 (MDA-N): 37.4 µM (inactive) | GI50 (SF-295): 2.2 µM (inactive) | GI50 (HCT-15): 2.39 µM | GI50 (Hs-578T): 87.9 µM (inactive) | GI50 (TK-10): 38.7 µM (inactive) | GI50 (SNB-19): > 100 µM (inactive) | GI50 (786-0): 83.8 µM (inactive) | GI50 (OVCAR-8): > 100 µM (inactive) | GI50 (MCF7): 8.05 µM (inactive) | GI50 (NCI-H522): 17.4 µM (inactive) | GI50 (RXF 393): 12.7 µM (inactive) | GI50 (RPMI-8226): 34.5 µM (inactive) | GI50 (HCC 2998): 4.91 µM (inactive) | GI50 (UACC-257): 11.4 µM (inactive) | GI50 (DU-145): 20 µM (inactive) | GI50 (K562): 26.4 µM (inactive) | GI50 (SF-268): 41.3 µM (inactive) | GI50 (HOP-62): 79.3 µM (inactive)

Cn1c2ccccc2c(=NNc2ccc(C(=O)O)cc2)c2ccccc21
GI50 (NCI/ADR-RES): 23.9 µM (inactive) | GI50 (MDA-N): 17.7 µM (inactive) | GI50 (SF-295): 20.8 µM (inactive) | GI50 (HCT-15): 18.8 µM | GI50 (Hs-578T): 18.7 µM (inactive) | GI50 (TK-10): 21.3 µM (inactive) | GI50 (SNB-19): 21.8 µM (inactive) | GI50 (786-0): 19.8 µM (inactive) | GI50 (OVCAR-8): 14.8 µM (inactive) | GI50 (MCF7): 10.4 µM (inactive) | GI50 (NCI-H522): 10.7 µM (inactive) | GI50 (RXF 393): 15.4 µM (inactive) | GI50 (RPMI-8226): 12.9 µM (inactive) | GI50 (HCC 2998): 8.38 µM (inactive) | GI50 (UACC-257): 30.1 µM (inactive) | GI50 (DU-145): 19.5 µM (inactive) | GI50 (K562): 6.79 µM (inactive) | GI50 (SF-268): 15.8 µM (inactive) | GI50 (HOP-62): 18.8 µM (inactive)
